Reference: US20040198770A1, “Uses for l-tetrahydropalmatine” (PharmacoGenetics Limited, priority 2003, published 2004)

Key:
Assay type in all cases: in vivo
ICR mice [1] = test: Horizontal-wire test; details: for No. of falling: Table 1, mice; for No. of falling / Number of falling: 60 s; for Number of falling: Table 2, mice
Method: (§1) ICR mice of male sex, weighing 15.6-17.8 g were used, provided by Experimental Animal Centre of HKUST, housed in groups, given food and water ad libitum and maintained on a 12 hour light: 12 hour dark cycle. All of the experimental groups had 12 animals per group.
(§2) For each experimental animal, administered orally 0.2 ml (pH 7.2) of respective solvent at concentrations as stated above for each group (or double-distilled water for normal control group) one hour before testing.
Mice are lifted by the tail and allowed to grasp a horizontally strung wire (1 mm diameter, 20 cm long and placed 20 cm above the table) with their forepaws and released (Bonetti E. P. et al., Psychopharmacology (Berl). 1982; 78(1): 8-18; PMID: 6292984). For each experimental animal, the number of falling onto the table in 60 seconds was determined.
There is no significant difference between same dosage l-THP and dl-THP groups.

ICR mice [2] = test: Elevated plus-maze test; details: for Closed arm entry % / Closed arm entry No. / Open arm entry % / Open arm entry No. / Total no. of arm entries: 300 s; for Closed arm Time spent / Closed arm time spent % / Open arm Time spent / Open arm time spent %: 300 s test
Method: as §1, §2
The elevated plus-maze is made of 0.5 cm thick wood as a horizontal cross consisting of two open arms (25×5 cm) and two opposite arms (25×5 cm) enclosed by 10 cm high walls. The arms extend from a central platform having dimensions of 5×5 cm. The plus-maze is elevated to a height of 40 cm from the floor. The maze is put inside a box with dimensions of 30×30×50 cm. The mice are placed on the central platform of the maze facing a closed arm. The number of arm entries and the time spent in the open and closed arm are counted for 300 seconds (Pellow S. et al., “Anxiolytic and anxiogenic drug effects on exploratory activity in an elevated plus-maze: a novel test of anxiety in the rat”, Pharmacol Biochem Behav. 1986 March; 24(3): 525-9; PMID: 2871560). Arm entry was defined as one half body entered into the arm.

ICR mice [3] = test: Locomotor activity test; details: for No. of Transitions: mice, 1 h before test, 300 s
Method: as §1, §2
An apparatus with a brown light-resistant box having dimensions of 60×60×30 cm was used to perform the test. It consists of four cylindrical plastic boxes of 20 cm diameter, each having 6 equally distributed infrared photocells. The locomotor activity was counted automatically during a 300 second test period. A decrease in the number of transitions reflects a decrease in locomotor activity.
Physical reflections existed for this group and there was no abnormal phenomenon in respiratory circulation.

ICR mice [4] = test: Hole-board test; details: 300 s
Method: as §1, §2
The hole-board apparatus is a 0.5 cm thick walled wood arena of 60×60×30 cm, with four 5 cm equidistant 4 cm diameter holes spaced on the floor. The mice are placed on the centre of the arena and the number of head-dip on the hole and the number of rearing are counted during a 300 second test period (File S. E. et al., “The effects of triazolobenzo-diazepines in two animal tests of anxiety and in the holeboard.”, Br J Pharmacol. 1985 November; 86(3): 729-35; PMID: 2866006). After each trial, the floor of the apparatus was wiped and dried thoroughly with tissue to remove traces of the previous path.

[5] = mice, oral 0.5 mg/kg, 0.5 mg/kg

COc1cc2c(cc1OC)[C@@H]1Cc3ccc(OC)c(OC)c3CN1CC2 [l-THP, l-tetrahydropalmatine]
No. of falling (ICR mice [1]; oral 0.5 mg/kg): 0.4 ± 0.49 | No. of falling (ICR mice [1]; oral 1.0 mg/kg): 0.4 ± 0.48 | No. of falling (ICR mice [1]; oral 5.0 mg/kg): 0.5 ± 0.67 | No. of falling (ICR mice [1]; oral 10 mg/kg): 1.0 ± 0.77 | No. of falling (ICR mice [1]; oral 20 mg/kg): 4.5 ± 1.50 | No. of falling (ICR mice [1]; oral 40 mg/kg): 8.5 ± 3.55 | Number of falling (ICR mice [1]; oral 0.5 mg/kg): 0.40 ± 0.48 | Number of falling (ICR mice [1]; oral 1.0 mg/kg): 0.40 ± 0.48 | Number of falling (ICR mice [1]; oral 5.0 mg/kg): 0.50 ± 0.67 | Number of falling (ICR mice [1]; oral 10 mg/kg): 1.00 ± 0.77 | Number of falling (ICR mice [1]; oral 30 mg/kg): 18.50 ± 3.54 | oral dosage at which there is no myorelaxation effect (ICR mice [1]; mice, oral): less than 20 mg/kg | Optimal dosage for anxiolytic effect (ICR mice [2]; experimental mice): 1 mg/kg | medicinal effect under medium dosage (ICR mice [2]; experimental mice, 5 mg/kg): sedative and hypnotic effect | medicinal effect under low dosage (ICR mice [2]; experimental mice, 0.1-2.5 mg/kg): anxiolytic effect | most medicinal dosage (time spent and percentage of open arm entry) (ICR mice [2]; mice, oral): 1 mg/kg | Closed arm entry % (ICR mice [2]; mice, oral 0.05 mg/kg): 67.89 ± 6.77% | Closed arm entry No. (ICR mice [2]; mice, oral 0.05 mg/kg): 19.33 ± 5.55 | Open arm entry % (ICR mice [2]; mice, oral 0.05 mg/kg): 32.11 ± 6.77% | Open arm entry No. (ICR mice [2]; mice, oral 0.05 mg/kg): 8.75 ± 1.36 | Total no. of arm entries (ICR mice [2]; mice, oral 0.05 mg/kg): 28.08 ± 5.62 | Closed arm Time spent (ICR mice [2]; mice, oral 0.05 mg/kg): 225.42 ± 12.13 | Closed arm time spent % (ICR mice [2]; mice, oral 0.05 mg/kg): 80.96 ± 3.55% | Open arm Time spent (ICR mice [2]; mice, oral 0.05 mg/kg): 53.08 ± 10.40 | Open arm time spent % (ICR mice [2]; mice, oral 0.05 mg/kg): 19.04 ± 3.55% | number of open arm entry of l-THP greater than dl-THP by (ICR mice [2]; mice, oral 0.1 mg/kg): 31.7% | percentage of open arm entry of l-THP greater than dl-THP by (ICR mice [2]; mice, oral 0.1 mg/kg): 40.4% | Closed arm entry % (ICR mice [2]; mice, oral 0.1 mg/kg): 57.17 ± 4.26% | Closed arm entry No. (ICR mice [2]; mice, oral 0.1 mg/kg): 15.27 ± 2.41 | Open arm entry % (ICR mice [2]; mice, oral 0.1 mg/kg): 42.83 ± 4.26 % | Total no. of arm entries (ICR mice [2]; mice, oral 0.1 mg/kg): 26.82 ± 4.38 | Closed arm Time spent (ICR mice [2]; mice, oral 0.1 mg/kg): 217.27 ± 15.11 | Closed arm time spent % (ICR mice [2]; mice, oral 0.1 mg/kg): 76.33 ± 5.61% | Open arm Time spent (ICR mice [2]; mice, oral 0.1 mg/kg): 68.18 ± 20.68 | Open arm time spent % (ICR mice [2]; mice, oral 0.1 mg/kg): 23.67 ± 5.61% | Closed arm entry % (ICR mice [2]; mice, oral 0.5 mg/kg): 58.18 ± 6.37% | Closed arm entry No. (ICR mice [2]; mice, oral 0.5 mg/kg): 16.17 ± 1.95 | Total no. of arm entries (ICR mice [2]; mice, oral 0.5 mg/kg): 27.92 ± 4.08 | Closed arm Time spent (ICR mice [2]; mice, oral 0.5 mg/kg): 205.33 ± 20.02 | Closed arm time spent % (ICR mice [2]; mice, oral 0.5 mg/kg): 74.19 ± 7.09% | Open arm Time spent (ICR mice [2]; mice, oral 0.5 mg/kg): 71.75 ± 21.08 | Open arm time spent % (ICR mice [2]; [5]): 25.81 ± 7.09 % | Open arm entry % (ICR mice [2]; [5]): 41.82 ± 6.37 % | Closed arm entry % (ICR mice [2]; mice, oral 1.0 mg/kg): 55.53 ± 3.10% | Closed arm entry No. (ICR mice [2]; mice, oral 1.0 mg/kg): 14.92 ± 1.93 | Open arm entry % (ICR mice [2]; mice, oral 1.0 mg/kg): 44.47 ± 3.10 % | Total no. of arm entries (ICR mice [2]; mice, oral 1.0 mg/kg): 26.92 ± 3.61 | Closed arm Time spent (ICR mice [2]; mice, oral 1.0 mg/kg): 204.00 ± 16.42 | Closed arm time spent % (ICR mice [2]; mice, oral 1.0 mg/kg): 71.94 ± 6.70% | Open arm time spent % (ICR mice [2]; mice, oral 1.0 mg/kg, 1 mg/kg): 28.06 ± 6.70 % | Closed arm entry % (ICR mice [2]; mice, oral 2.5 mg/kg): 59.61 ± 4.06% | Closed arm entry No. (ICR mice [2]; mice, oral 2.5 mg/kg): 15.92 ± 2.15 | Open arm entry % (ICR mice [2]; mice, oral 2.5 mg/kg): 40.39 ± 4.09 % | Open arm entry No. (ICR mice [2]; mice, oral 2.5 mg/kg): 10.92 ± 2.50 | Total no. of arm entries (ICR mice [2]; mice, oral 2.5 mg/kg): 26.83 ± 4.20 | Closed arm Time spent (ICR mice [2]; mice, oral 2.5 mg/kg): 227.83 ± 12.15 | Closed arm time spent % (ICR mice [2]; mice, oral 2.5 mg/kg): 78.04 ± 4.70% | Open arm Time spent (ICR mice [2]; mice, oral 2.5 mg/kg): 64.75 ± 16.70 | Open arm time spent % (ICR mice [2]; mice, oral 2.5 mg/kg): 21.96 ± 4.70% | number of open arm entry of l-THP less than dl-THP by (ICR mice [2]; mice, oral 5 mg/kg): 357.4% | percentage of open arm entry of l-THP less than dl-THP by (ICR mice [2]; mice, oral 5 mg/kg): 69.5% | Closed arm entry % (ICR mice [2]; mice, oral 5.0 mg/kg): 70.37 ± 5.03% | Closed arm entry No. (ICR mice [2]; mice, oral 5.0 mg/kg): 7.83 ± 3.43 | Closed arm Time spent (ICR mice [2]; mice, oral 5.0 mg/kg): 253.25 ± 24.32 | Closed arm time spent % (ICR mice [2]; mice, oral 5.0 mg/kg): 88.54 ± 5.48% | Open arm time spent % (ICR mice [2]; mice, oral 5.0 mg/kg, 5 mg/kg): 11.46 ± 5.48 % | Open arm entry % (ICR mice [2]; mice, oral 5.0 mg/kg, 5 mg/kg): 29.63 ± 5.03% | increase of percentage of open arm entry compared to the normal control group (ICR mice [2]; mice, oral 0.1-2.5 mg/kg): 39.31-48.14% | increase of percentage of time spent in open arm compared to the normal control group (ICR mice [2]; mice, oral 0.1-2.5 mg/kg): 27.19-50.78% | medicinal effect under high dosage (ICR mice [3]; 20 mg/kg): inhibitive effect on CNS and myorelaxation | No. of Transitions (ICR mice [3]; oral 0.5 mg/kg): 121.1 ± 9.53 | No. of Transitions (ICR mice [3]; oral 1.0 mg/kg): 111.3 ± 11.91 | No. of Transitions (ICR mice [3]; oral 5.0 mg/kg): 104.5 ± 10.73 | No. of Transitions (ICR mice [3]; oral 10 mg/kg): 101.4 ± 15.41 | No. of Transitions (ICR mice [3]; oral 20 mg/kg): 53.0 ± 12.72 | No. of Transitions (ICR mice [3]; oral 40 mg/kg): 13.6 ± 5.27 | Head-dip No. (ICR mice [4]; oral 0.05 mg/kg): 15.83 ± 3.01 | Rearing No. (ICR mice [4]; oral 0.05 mg/kg): 26.83 ± 5.51 | Total No. (head-dip and rearing) (ICR mice [4]; oral 0.05 mg/kg): 42.67 ± 6.64 | Head-dip No. (ICR mice [4]; oral 0.1 mg/kg): 18.73 ± 6.56 | Rearing No. (ICR mice [4]; oral 0.1 mg/kg): 20.36 ± 9.54 | Rearing No. (ICR mice [4]; oral 0.5 mg/kg): 27.08 ± 13.64 | Total No. (head-dip and rearing) (ICR mice [4]; oral 0.5 mg/kg): 41.00 ± 10.20 | Rearing No. (ICR mice [4]; oral 1.0 mg/kg): 23.50 ± 9.27 | Head-dip No. (ICR mice [4]; oral 2.5 mg/kg): 15.67 ± 4.00 | Rearing No. (ICR mice [4]; oral 2.5 mg/kg): 22.42 ± 4.06 | Total No. (head-dip and rearing) (ICR mice [4]; oral 2.5 mg/kg): 38.08 ± 6.43 | Head-dip No. (ICR mice [4]; oral 5.0 mg/kg): 8.75 ± 5.56
